From ChEMBL document CHEMBL3507680, “University of Dundee, Gates Library screen for HepG2 cell viability” come the findings set out here.

The structures appear in SMILES notation.

This series can be described thus: Human HepG2 cell viability assay in 384 well format. It is filed as toxicity, cell-based. Further details: dose 125 nL, time 70.5 hour; concentration not given beside the values. Particulars: HepG2 cells, read-out: Inhibition.
On to `Cc1nc(CCC(N)=O)cc(C2CCNCC2)n1`, for which the cytotoxicity at 70.5 h worked out at 18.8%. For `FC(F)(F)CCc1ncnn1-c1ccc2c(c1)OCO2` the value was -7.77%. With `CN(Cc1ccccc1)C(=O)CCN1C[C@H](C2CC2)[C@@H](N(C)C)C1`, the cytotoxicity at 70.5 h is -10.8%. For the compound `CC(C)Oc1cccc(C(O)CNC(=O)NCc2cccs2)c1` (centres undefined), the cytotoxicity at 70.5 h was 3.68%.

Consider `O=C(c1ccco1)N1CC[C@@H]2[C@H]1CCC(=O)N2c1ccccc1`, for which the cytotoxicity at 70.5 h is -15.1%.

For `O=S(=O)(c1ccc(F)cc1)N1CC[C@H]2[C@H]1CCN2c1ncccn1`, the cytotoxicity at 70.5 h is -2.97%. Consider `O=C(CCn1c(C(F)(F)F)cc2cccnc21)NC1CCCC1`, for which the cytotoxicity at 70.5 h was -3.77%. Regarding `COc1ccc(C[C@H]2CN(C3CCOCC3)CC[C@@H]2OCC2CC2)cc1`, the cytotoxicity at 70.5 h was -3.98%.

`Cc1ccoc1C(=O)N1CCCC2(CCCN2S(C)(=O)=O)C1` (centres undefined): the cytotoxicity at 70.5 h was -3.55%. As for `CCC1CN(C(=O)c2ccc(=O)[nH]n2)CCC(=O)N1Cc1ccccc1` (centres undefined), the cytotoxicity at 70.5 h stood at 1.68%. For `NC(=O)c1cn[nH]c1C1CCCN1C(=O)c1cnccn1` (centres undefined) the value was -10.1%; for `CC(C(=O)Nc1ccnn1C(C)C)N1CCN(Cc2ccon2)CC1` (centres undefined), 1.23%; for `COc1cc(CNC(=O)c2c(C)noc2C)ccn1`, -4.45%. On to `Cc1noc(C(C)C)c1C(=O)NS(=O)(=O)c1cccnc1`, for which the cytotoxicity at 70.5 h turned out to be 17.5%. As for `COc1ccc2c(c1)CC(C1CCOCC1)N(C(=O)c1cnccn1)C2` (centres undefined), the cytotoxicity at 70.5 h stood at 0.645%. Take `Cc1nn(Cc2ccc(C(=O)NCCCN3CCCC3=O)o2)c(C)c1Cl`: the cytotoxicity at 70.5 h is -10.6%.

Turning to `Cc1ncsc1C(=O)N(Cc1ccccc1)C1CC1`, the cytotoxicity at 70.5 h was -19.8%. For `CC(C)[C@@H]1CN(C(=O)CCn2ccccc2=O)C[C@H]1NS(C)(=O)=O` the value was -7.19%; for `CN(Cc1ccsc1)C(=O)Nc1ccc(N(C)C)nc1`, -2.83%; for `CN(C)C(=O)c1cccc(CNc2ccc(C#N)cn2)c1`, 5.12%. For `Cc1ccc(C(=O)N2C[C@@H]3[C@@H](C2)OCC(=O)N3Cc2cccnc2)o1`, the cytotoxicity at 70.5 h was -2.11%. For `Cc1cc(C(F)(F)F)n2nc(C3CCCN(S(C)(=O)=O)C3)cc2n1` (centres undefined) the value was -2.03%. `CN1CCCn2c(nc(CNS(=O)(=O)C3CC3)cc2=O)C1`: the cytotoxicity at 70.5 h is -1.98%. For `COc1ccc2c(=O)n(CC3CCNC3)ccc2c1OC` (centres undefined) the value was 1.63%.

For the compound `CN1CC2(CCCN(CCOCc3ccccc3)C2)OC1=O` (centres undefined), the cytotoxicity at 70.5 h is -3.02%. Then `CN1CCN(Cc2ccncc2)C(=O)C12CCN(c1nccs1)CC2`, with -2.86%. As for `c1ccc2oc(CCCN3CCCC3c3noc(C4CC4)n3)nc2c1` (centres undefined), the cytotoxicity at 70.5 h was determined as 17.9%. For `COc1cc(N2CC[C@@H](O)[C@@H]2Cc2ccncc2)ncn1` the value was -10%. In the case of `COc1cccc(OCC(=O)N2CCCSCC2CN2CCOCC2)c1` (centres undefined), the cytotoxicity at 70.5 h came to 14.1%. For `CN(Cc1ccccc1)C(=O)CN1CCCC1c1cnn(C)c1` (centres undefined) the value was -10.2%; for `CN(Cc1nc(-c2ccccc2)c[nH]1)C(=O)NCC(=O)NC(C)(C)C`, -5.84%; for `CCc1cc(C)c(C(=O)N2CCCC(c3nnn[nH]3)C2)o1` (centres undefined), -0.273%. On to `Cn1ccnc1CN1CCC2(CC1)CCN(c1ccccc1)C2=O`, for which the cytotoxicity at 70.5 h worked out at 27.2%. Then `COc1cccc(CNc2nc(N3CCOCC3)ns2)c1OC`, with 15.5%; and `CC(C)(C)c1noc(CN2CCN(C(=O)c3cccs3)CC2)n1`, with -12.1%.

`O=C1NCCO[C@H]2CN(C(=O)Cc3csc4ccccc34)CC[C@@H]12`: the cytotoxicity at 70.5 h is -8.16%. Then `FC(F)Oc1ccc(NCc2nc(C3CC3)no2)c(OC(F)F)c1`, with 1.35%; and `CC(C)OCCN1CCC(Nc2ncc(Br)cn2)CC1`, with -7.14%; and `CCn1ccnc1CN1CCN(Cc2ccc(C#N)cc2)CC1`, with 28.9%.
